Measured values reported in patent US20090172831A1, “Methods for the production of plants resistant to HPPD herbicides” (Syngenta Limited, priority 2000, published 2009).
Values joined by “and” are separate entries in the source; they are usually repeats but may differ in a detail not shown here. Equal entries are not always repeated. Where two headings read alike, the source gives them in different places.

Legend:
[1] = tested on: untransformed tobacco explants; assay: Explants on MS agar containing mesotrione, bleaching; format: in vivo; conditions: MS agar + 3% sucrose
Source text: Explants (i.e. a leaf plus short segment of stem containing the auxiliary bud) are placed into MS agar (+3% sucrose) containing various concentrations of mesotrione (see above) from 0.02 to 2 ppm. In tobacco, for example, untransformed explants are fully bleached at 0.02 ppm. […] In these particular experiments, only the shoot that develops from the bud is bleached, the leaf on the explanted tissue remains green.

Arabidopsis HPPD = molecular target: T1, Arabidopsis HPPD (Arabidopsis thaliana, UniProt P93836); assay: Inhibition of HPPD (E. coli extract) after pre-incubation with inhibitor; format: biochemical; conditions: read-out: inhibition (relative to controls)
T1 construct: made in house; host or cells: E. coli BL21 (DE3) codon+ RP
T1 sequence (P93836 1-445): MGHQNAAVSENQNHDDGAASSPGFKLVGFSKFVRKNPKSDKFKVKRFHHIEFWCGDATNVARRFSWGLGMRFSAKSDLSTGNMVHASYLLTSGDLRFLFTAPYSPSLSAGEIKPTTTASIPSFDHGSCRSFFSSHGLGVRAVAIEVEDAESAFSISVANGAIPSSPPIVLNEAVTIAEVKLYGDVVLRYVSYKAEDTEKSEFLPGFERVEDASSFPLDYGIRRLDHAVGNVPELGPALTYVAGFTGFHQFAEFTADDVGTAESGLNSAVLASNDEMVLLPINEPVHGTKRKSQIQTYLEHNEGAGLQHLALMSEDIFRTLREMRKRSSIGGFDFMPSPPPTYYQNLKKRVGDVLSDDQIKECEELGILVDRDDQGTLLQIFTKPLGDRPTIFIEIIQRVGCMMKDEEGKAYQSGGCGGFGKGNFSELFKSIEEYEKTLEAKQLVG
Experimental: Qualitative measurements of the differences in Kd values in respect of different HPPD inhibitors are obtained by pre-incubating enzyme with inhibitor and, then, subsequently, measuring the % inhibition. For example HPPD is isolated from maize seedlings, part purified and assayed by similar methods to those described by Schulz et al 1993 (FEBS LETS. 318, 162-166) and by Secor (1994) in Plant Physiol. 106, 1429-1433. Assays are run for 30 minutes and started with addition of radiolabelled hydroxyphenylpyruvate (final concentration ˜0.1-0.2 mM) following a 20-30 min period over which inhibitor is pre-incubated with the part-purified enzyme.
Using the same assay method but using HPPD from Arabidopis (obtained from E. coli cells transformed to express the Arabidopsis HPPD and prepared as an E. coli extract similar to the methods described by Garcia et al in Plant Physiol (1999) 119, 1507-1516) the following levels of inhibition (relative to controls) are observed with the following doses of herbicide versus Arabidopsis HPPD.

[2] = tested on: tobacco plants transformed to express wheat HPPD; assay: Tolerance of tobacco transformed with wheat HPPD to herbicides; format: in vivo; conditions: MS agar; a number of PCR+ve transformants (0.1), a sub-set (>0.2); listed as mesotrione
Source text: These constructs were all transformed into Agrobacterium tumefaciens strain LBA4404, which in turn was used to transform tobacco, using methodology described previously.

P. fluorescens HPPD = P. fluorescens HPPD (Pseudomonas fluorescens, UniProt A0ACG8AE61); assay: Dissociation of enzyme/inhibitor complexes by exchange with 14C-labelled inhibitor (koff; Kd = koff/kon); format: binding
P. fluorescens HPPD, sequence (A0ACG8AE61 entry or part of it): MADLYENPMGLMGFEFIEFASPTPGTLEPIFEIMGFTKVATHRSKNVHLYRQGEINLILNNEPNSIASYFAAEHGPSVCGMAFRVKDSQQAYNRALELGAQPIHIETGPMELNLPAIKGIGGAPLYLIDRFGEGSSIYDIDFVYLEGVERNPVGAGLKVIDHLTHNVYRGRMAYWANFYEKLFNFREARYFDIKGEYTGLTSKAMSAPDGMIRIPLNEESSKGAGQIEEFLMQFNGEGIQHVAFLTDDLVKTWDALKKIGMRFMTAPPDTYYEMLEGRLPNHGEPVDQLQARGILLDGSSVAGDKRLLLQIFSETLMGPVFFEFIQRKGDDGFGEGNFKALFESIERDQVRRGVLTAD
Source text: Herbicidal inhibitors of HPPD are found here to have generally low values of koff (in the range less than 0.0003 s^−1, often less than 0.000001 s^−1). It will be appreciated that many suitable methods known in the art for determining such low koff values are suitable for working the current invention. These include measuring rates of exchange of radio or otherwise labelled inhibitors either with or away from the enzyme inhibitor complex. For example enzyme inhibitor complexes can readily be prepared by incubating HPPD preparations with labelled or unlabelled inhibitor and then, after suitable periods, optionally rapidly separating the thus formed enzyme inhibitor complex from excess inhibitor by any suitable method such as ultrafiltration, binding to filters or exchange down a gel filtration column. Exchange reactions with the, thus prepared enzyme inhibitor complex is then initiated by addition of, as appropriate, excess labelled or unlabelled inhibitor. HPPD preparations suitable for use in the methods of the current invention are relatively unpurified, buffer-exchanged, supernatant fractions of spun crude lysates of E. coli strains engineered to express the HPPD enzyme of interest at a level of, typically, about 0.25-10% of the total soluble protein. Many methods such as radiometric, fluorimetric, NMR, fluorescence depolarisation, EPR, Mossbauer, UV/VIS spectrophotometry etc. or phonon resonance can, in principle, be used to monitor the enzyme/ligand exchange reactions and, particularly in this case where the enzyme contains an iron atom at the ligand binding site. Optionally, the monitoring method may be continuous (as, for example, with scintillation proximity/bead-based methods) or, discontinuous, based upon collection of data at various timepoints wherein samples are removed and the bound and unbound label components rapidly separated and quantitated.
Values of koff can suitably be calculated by computer fitting based upon is numerical integration of the exchange data along with information on the active-site concentration of HPPD and upon kon values obtained as described below. […] In any event, koff values are always here calculated from the rate of the major slow exchange reaction. It will be appreciated that within the scope of the current invention many methods of making the desired kinetic comparisons are possible without explicit or rigorous determination of off rates but, based upon the same underlying principle, will achieve the same selection result. […]
Not all test inhibitors are readily available in a radiolabelled form. A more general method of measuring off rates is to first form the complex with unlabelled test inhibitor, to rapidly exchange the complex free of excess unlabelled inhibitor and to then start the exchange reaction by addition of an excess of a standard labelled inhibitor, the kinetic properties of which are already known. The reaction is then monitored and the relative proportions of bound and unbound label determined at various times. […] The latter is the method of choice when the rate of exchange is fast (t½<3 h).
In, variants of the above methods, off rates are measured either in the presence or absence of ˜25% v/v glycerol. In the presence of glycerol values obtained are generally ˜1.5-3× slower than in its absence although sometimes the change is outside this range or, even, in the other direction. Further examples of data obtained are depicted in the following Table 3.
Crude Extracts of recombinant E. coli strains expressing, in the one case, a control HPPD (from Arabidopsis) and, in the other, one or more test HPPD sequences are prepared as described in the preceding example. The titre of active sites and enzyme activity are also defined and measured as described in the preceding examples. […]

Wheat HPPD = Wheat HPPD (Triticum aestivum, UniProt A0A3B6NLC6); assay: kon from HPLC enzyme assay (progressive inhibition / timed pre-reaction); format: biochemical; conditions: for observed first order decay rate constant: 100 μM HPP (no inhibitor: 0.016)
Wheat HPPD, sequence (A0A3B6NLC6 entry or part of it): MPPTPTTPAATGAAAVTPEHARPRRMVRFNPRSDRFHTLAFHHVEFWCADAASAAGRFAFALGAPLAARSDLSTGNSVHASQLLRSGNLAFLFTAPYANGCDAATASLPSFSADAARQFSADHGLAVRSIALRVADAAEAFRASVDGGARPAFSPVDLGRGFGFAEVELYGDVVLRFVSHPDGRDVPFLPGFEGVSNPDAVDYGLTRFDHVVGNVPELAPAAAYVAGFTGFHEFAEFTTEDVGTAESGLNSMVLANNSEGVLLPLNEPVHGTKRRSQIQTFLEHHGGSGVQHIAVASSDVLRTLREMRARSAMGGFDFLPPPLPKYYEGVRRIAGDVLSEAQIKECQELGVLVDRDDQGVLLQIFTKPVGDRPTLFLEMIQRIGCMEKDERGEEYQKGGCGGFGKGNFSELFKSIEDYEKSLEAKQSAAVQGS
Experimental: Assay buffer is 105 μM (or as appropriate) hydroxyphenylpyruvate (HPP) is freshly made up in 50 mM Bis-Tris-propane buffer at pH 7.0. Dilution buffer is 50 mM Bis-Tris-propane buffer at pH 7.0 containing 25 mM sodium ascorbate and 3.8 mg/l of bovine catalase (Sigma C3155˜50,000 units/mg). HPPD enzyme, freshly unfrozen from storage is kept at ice temperature and diluted, also at ice temperature, to an appropriate concentration in dilution buffer (typically, 2-8 μM) before use. Assays are started by addition of 5 μl of diluted enzyme to 100 μl of assay buffer at 25 C in an eppendorf centrifuge and stopped, at a series of times between 0 and 90 s by addition of 20 μl of 25% perchloric acid and whirlimixing. 80-100 μl of the contents of each eppendorf tube is transferred to an HPLC vial prior to separation by Reverse Phase HPLC. For HPLC, 40 μl is loaded at 1.5 ml/min onto an Aqua C18 5μ 75×4.6 mm column (silica is endcapped) equilibrated with 5.5% acetonitrile, 0.1% trifluoroacetic acid (buffer A) using an HP 1100 HPLC system. The column is eluted, also at 1.5 ml/min, using a 2 minute wash with buffer A, followed by a 2 min wash with a 30/70 mixture of buffer A/100% acetonitrile followed by a further 3.5 minute wash with buffer A (in between uses the column is stored in 65% acetonitrile/water). The elution of HGA (homogentisic acid) and HPP(hydroxyphenylpyruvate) is monitored using a UV flow cell and quantitated via integration of peak absorbance at 292 nm. HGA elutes at around 2 minutes and HPP elutes later. A standard set of concentrations of HGA are used to provide a standard curve in order to calibrate the UV absorbance of the HGA peak versus HGA concentration.
In FIG. 3 assays containing 100 μM HPP substrate were started with addition of wheat HPPD to a final concentration of ˜19 nM and stopped at the times indicated.
In a more direct assay-based method for measuring kon values, test HPPD enzyme is reacted with inhibitor for a range of times and then the inhibition reaction is effectively stopped by addition of a high concentration of the (competitive) substrate HPP. […]

dicot plants = assay: Herbicidal activity versus dicot plants averaged over 6 or more species; conditions: in vivo
Source text: Activity versus dicot plants refers here to herbicidal activity averaged over a range of 6 or more of those dicot weed and crop species usually used in screens used for compound discovery in the agrochemical community. Herbicidal activity versus dicot plants also refers here to that activity which is due to the inhibitor per se rather than due to some, potentially more herbicidal, metabolite of it which may be formed in planta or otherwise.

Row | SMILES | concentration at which explants are fully bleached [1] [ppm] | inhibition at 0.001 µM (Arabidopsis HPPD; 1 nM) [%] | inhibition at 0.01 µM (Arabidopsis HPPD; 10 nM) [%] | inhibition at 0.1 µM (Arabidopsis HPPD; 100 nM) [%] | inhibition at 1 µM (Arabidopsis HPPD; 1000 nM) [%] | concentration tolerated with no indication of bleaching / plants looking normal [2] | Kd (P. fluorescens HPPD; Kd, value obtained + glycerol (in parentheses)) [nM] | Kd (P. fluorescens HPPD; Kd, without glycerol, Kd = koff/kon) [nM] | kon (Wheat HPPD) [M⁻¹ s⁻¹] | observed first order decay rate constant (Wheat HPPD; 2.5 μM inhibitor) [s⁻¹] | observed first order decay rate constant (Wheat HPPD; 10 μM inhibitor) [s⁻¹] | herbicidal activity versus dicot plants relative to mesotrione (dicot plants) | Kd (P. fluorescens HPPD; without glycerol, Kd = koff/kon, read-out: Kd) [nM] | koff (P. fluorescens HPPD; − glycerol) [s⁻¹]
1 | CS(=O)(=O)c1ccc(C(=O)C2C(=O)CCCC2=O)c([N+](=O)[O-])c1 [Structure I, 2-(Nitro-4-methanesulphonylbenzoyl)-cyclohexane-1,3-dione, reference compound] | 0.02 | 42 | 95 | 100 | 100 | 0.1 ppm and > 0.2 ppm | 0.2 | 0.114 |  |  |  |  |  | 
2 | Cc1nc(C(F)(F)F)ccc1C(=O)C1C(=O)C2CCC(C2)C1=O (centres unmarked) [Structure II] |  |  |  |  |  |  |  |  | 48000 to 57200 | 0.029 | 0.06 | at least a quarter of the herbicidal activity of mesotrione | 2.17 | 5e-05
